One block for each compound: values may come before it.
Legend:
Assay in all cases: KINOMEscan competition binding
Details in all cases: compound 10.0 µM
[1] = target: MAP3K7 (human) (UniProt O43318)
[2] = target: JAK3 JH1 catalytic (human) (UniProt P52333)
[3] = tested on: FGFR3 (human), P22607 [G697C]
[4] = target: MAP2K3 (human) (UniProt P46734)
[5] = target: SIK1 (human) (UniProt P57059)
[6] = target: TSSK1B (human) (UniProt Q9BXA7)
[7] = target: TNIK (human) (UniProt Q9UKE5)
[8] = target: RIPK1 (human) (UniProt Q13546)
[9] = target: JAK1 JH1 catalytic (human) (UniProt P23458)
[10] = target: CDK14 (human) (UniProt O94921)
[11] = target: MET (human) (UniProt P08581)
[12] = target: SRPK1 (human) (UniProt Q96SB4)
[13] = target: CAMK2G (human) (UniProt Q13555)
[14] = target: SRPK2 (human) (UniProt P78362)
[15] = target: NTRK1 (human) (UniProt P04629)
[16] = target: TEC (human) (UniProt P42680)
[17] = target: PLK3 (human) (UniProt Q9H4B4)
[18] = target: PLK4 (human) (UniProt O00444)
[19] = target: MATK (human) (UniProt P42679)
[20] = target: ROCK2 (human) (UniProt O75116)
[21] = target: PRKD2 (human) (UniProt Q9BZL6)
[22] = target: FLT3 (human) (UniProt P36888)
[23] = target: ABL2 (human) (UniProt P42684)
[24] = target: CAMKK1 (human) (UniProt Q8N5S9)
[25] = tested on: KIT (human), P10721 [V559D/T670I]
[26] = target: MAP2K1 (human) (UniProt Q02750)
[27] = target: RPS6KA2 KD2 (human) (UniProt Q15349)
[28] = target: HIPK3 (human) (UniProt Q9H422)
[29] = target: PTK2 (human) (UniProt Q05397)
[30] = target: ACVR2A (human) (UniProt P27037)
[31] = target: NEK1 (human) (UniProt Q96PY6)
[32] = target: EPHA1 (human) (UniProt P21709)
[33] = target: MYO3B (human) (UniProt Q8WXR4)
[34] = target: CDK15 (human) (UniProt Q96Q40)
[35] = target: MAP2K6 (human) (UniProt P52564)
[36] = tested on: ABL1 (human), P00519 [T315I]
[37] = target: PRKCD (human) (UniProt Q05655)
[38] = target: STK10 (human) (UniProt O94804)
[39] = target: ROCK1 (human) (UniProt Q13464)
[40] = target: FER (human) (UniProt P16591)
[41] = target: CaMK1 (human) (UniProt Q14012)

Sequence of JAK1 JH1 catalytic (human) (P23458 whole entry, looked up): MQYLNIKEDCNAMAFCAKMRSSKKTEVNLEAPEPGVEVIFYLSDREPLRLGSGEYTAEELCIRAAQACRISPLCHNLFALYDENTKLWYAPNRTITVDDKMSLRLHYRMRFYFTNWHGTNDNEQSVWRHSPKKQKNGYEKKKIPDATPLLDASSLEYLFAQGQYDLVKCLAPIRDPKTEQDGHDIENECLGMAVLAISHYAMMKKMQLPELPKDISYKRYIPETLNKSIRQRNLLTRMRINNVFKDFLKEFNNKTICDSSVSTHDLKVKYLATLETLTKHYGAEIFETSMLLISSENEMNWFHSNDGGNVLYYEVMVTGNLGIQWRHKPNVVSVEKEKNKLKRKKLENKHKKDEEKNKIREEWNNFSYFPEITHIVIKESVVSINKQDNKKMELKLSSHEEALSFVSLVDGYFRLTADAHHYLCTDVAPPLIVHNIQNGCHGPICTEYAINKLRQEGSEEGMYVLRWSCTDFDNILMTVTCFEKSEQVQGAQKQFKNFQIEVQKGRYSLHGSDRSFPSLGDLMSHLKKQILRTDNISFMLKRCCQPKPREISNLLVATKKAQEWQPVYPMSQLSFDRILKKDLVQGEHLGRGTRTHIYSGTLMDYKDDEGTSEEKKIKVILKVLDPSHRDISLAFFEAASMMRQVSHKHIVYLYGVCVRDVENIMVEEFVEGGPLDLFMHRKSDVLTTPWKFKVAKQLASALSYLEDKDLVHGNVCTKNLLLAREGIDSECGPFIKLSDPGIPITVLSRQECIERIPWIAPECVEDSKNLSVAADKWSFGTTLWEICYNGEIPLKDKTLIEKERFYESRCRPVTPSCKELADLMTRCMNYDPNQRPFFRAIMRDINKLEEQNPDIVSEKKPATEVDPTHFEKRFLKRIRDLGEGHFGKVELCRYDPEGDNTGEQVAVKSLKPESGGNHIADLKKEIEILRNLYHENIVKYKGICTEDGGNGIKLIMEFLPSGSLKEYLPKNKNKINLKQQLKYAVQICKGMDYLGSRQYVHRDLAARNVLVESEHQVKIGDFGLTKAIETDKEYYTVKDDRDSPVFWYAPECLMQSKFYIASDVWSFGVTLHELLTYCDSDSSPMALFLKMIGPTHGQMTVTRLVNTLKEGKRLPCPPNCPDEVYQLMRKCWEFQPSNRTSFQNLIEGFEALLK
Sequence of STK10 (human) (O94804 whole entry, looked up): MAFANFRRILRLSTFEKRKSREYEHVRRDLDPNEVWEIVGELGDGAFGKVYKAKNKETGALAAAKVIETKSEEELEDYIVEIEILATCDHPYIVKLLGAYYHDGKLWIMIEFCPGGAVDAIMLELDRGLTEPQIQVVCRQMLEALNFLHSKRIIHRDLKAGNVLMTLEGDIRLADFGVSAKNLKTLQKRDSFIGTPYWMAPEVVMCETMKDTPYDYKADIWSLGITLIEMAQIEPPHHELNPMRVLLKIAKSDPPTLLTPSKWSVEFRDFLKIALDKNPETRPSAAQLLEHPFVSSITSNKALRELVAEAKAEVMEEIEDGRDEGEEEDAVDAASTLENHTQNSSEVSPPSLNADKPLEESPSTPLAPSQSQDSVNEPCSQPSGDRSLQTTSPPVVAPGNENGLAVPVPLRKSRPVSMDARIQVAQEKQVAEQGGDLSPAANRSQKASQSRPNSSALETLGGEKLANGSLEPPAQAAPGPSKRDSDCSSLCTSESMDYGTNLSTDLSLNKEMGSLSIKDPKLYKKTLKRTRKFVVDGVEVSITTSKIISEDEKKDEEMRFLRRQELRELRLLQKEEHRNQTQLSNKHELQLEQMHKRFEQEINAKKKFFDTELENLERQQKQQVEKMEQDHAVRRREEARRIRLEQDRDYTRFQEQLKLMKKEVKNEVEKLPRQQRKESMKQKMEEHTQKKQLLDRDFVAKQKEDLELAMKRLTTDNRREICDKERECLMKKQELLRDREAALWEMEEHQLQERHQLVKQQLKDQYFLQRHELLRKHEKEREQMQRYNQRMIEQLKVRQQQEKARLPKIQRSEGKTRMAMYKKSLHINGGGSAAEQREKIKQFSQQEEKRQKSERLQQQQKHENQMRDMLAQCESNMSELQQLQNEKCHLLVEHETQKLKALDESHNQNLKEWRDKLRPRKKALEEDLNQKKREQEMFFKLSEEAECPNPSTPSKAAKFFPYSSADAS
Sequence of PLK4 (human) (O00444 whole entry, looked up): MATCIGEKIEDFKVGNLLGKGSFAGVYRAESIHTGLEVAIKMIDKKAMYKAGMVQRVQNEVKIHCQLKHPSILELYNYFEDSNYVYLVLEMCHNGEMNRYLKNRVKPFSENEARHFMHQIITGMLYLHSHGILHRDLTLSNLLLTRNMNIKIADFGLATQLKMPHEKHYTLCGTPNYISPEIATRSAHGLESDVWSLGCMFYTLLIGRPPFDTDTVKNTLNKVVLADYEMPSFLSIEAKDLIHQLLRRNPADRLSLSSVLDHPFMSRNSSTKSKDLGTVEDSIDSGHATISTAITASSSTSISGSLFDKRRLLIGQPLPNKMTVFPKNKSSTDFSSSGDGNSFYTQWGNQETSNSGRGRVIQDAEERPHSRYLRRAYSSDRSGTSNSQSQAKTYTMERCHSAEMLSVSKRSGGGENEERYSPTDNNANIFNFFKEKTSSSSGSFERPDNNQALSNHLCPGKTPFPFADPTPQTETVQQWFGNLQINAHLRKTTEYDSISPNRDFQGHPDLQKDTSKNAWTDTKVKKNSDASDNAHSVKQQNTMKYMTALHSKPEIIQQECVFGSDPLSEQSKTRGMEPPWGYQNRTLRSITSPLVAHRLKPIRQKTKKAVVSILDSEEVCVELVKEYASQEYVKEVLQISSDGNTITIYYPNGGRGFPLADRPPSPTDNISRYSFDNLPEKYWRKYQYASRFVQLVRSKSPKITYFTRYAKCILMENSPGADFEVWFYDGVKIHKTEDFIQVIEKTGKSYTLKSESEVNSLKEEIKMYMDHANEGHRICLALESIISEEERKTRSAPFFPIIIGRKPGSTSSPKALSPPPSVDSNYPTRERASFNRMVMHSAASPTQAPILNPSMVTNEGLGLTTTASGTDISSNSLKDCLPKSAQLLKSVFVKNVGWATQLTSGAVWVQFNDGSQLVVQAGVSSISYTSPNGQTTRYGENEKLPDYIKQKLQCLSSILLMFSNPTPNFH
Sequence of CDK14 (human) (O94921 whole entry, looked up): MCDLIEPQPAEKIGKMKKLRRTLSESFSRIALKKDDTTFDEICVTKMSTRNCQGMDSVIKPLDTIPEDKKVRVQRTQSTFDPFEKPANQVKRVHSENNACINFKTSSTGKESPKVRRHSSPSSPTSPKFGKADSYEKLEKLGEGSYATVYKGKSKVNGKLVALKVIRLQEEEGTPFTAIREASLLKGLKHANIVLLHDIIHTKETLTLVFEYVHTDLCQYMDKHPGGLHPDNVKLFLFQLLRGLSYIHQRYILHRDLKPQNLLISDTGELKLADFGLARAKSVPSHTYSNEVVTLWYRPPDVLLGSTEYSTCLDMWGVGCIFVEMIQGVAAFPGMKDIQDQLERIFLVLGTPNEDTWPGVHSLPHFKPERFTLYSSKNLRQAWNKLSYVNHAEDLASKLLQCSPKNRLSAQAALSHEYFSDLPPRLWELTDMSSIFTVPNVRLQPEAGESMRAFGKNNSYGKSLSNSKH
Sequence of TEC (human) (P42680 whole entry, looked up): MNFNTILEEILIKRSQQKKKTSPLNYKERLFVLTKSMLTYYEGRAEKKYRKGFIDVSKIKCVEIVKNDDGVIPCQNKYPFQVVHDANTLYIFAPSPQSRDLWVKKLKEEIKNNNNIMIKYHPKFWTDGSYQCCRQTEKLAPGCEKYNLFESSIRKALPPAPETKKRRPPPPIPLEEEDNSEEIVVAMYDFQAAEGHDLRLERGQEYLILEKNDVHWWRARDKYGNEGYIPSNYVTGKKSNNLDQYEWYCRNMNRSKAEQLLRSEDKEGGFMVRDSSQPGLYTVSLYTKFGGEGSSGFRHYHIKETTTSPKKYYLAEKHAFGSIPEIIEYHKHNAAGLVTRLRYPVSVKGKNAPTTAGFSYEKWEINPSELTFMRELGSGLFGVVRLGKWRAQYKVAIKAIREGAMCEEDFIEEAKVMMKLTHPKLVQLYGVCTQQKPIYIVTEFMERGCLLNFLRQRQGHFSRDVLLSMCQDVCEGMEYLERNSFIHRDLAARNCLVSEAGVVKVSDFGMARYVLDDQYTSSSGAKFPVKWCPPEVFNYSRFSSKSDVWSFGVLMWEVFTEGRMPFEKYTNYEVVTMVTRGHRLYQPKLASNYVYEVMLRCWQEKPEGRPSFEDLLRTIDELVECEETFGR
Sequence of PRKCD (human) (Q05655 whole entry, looked up): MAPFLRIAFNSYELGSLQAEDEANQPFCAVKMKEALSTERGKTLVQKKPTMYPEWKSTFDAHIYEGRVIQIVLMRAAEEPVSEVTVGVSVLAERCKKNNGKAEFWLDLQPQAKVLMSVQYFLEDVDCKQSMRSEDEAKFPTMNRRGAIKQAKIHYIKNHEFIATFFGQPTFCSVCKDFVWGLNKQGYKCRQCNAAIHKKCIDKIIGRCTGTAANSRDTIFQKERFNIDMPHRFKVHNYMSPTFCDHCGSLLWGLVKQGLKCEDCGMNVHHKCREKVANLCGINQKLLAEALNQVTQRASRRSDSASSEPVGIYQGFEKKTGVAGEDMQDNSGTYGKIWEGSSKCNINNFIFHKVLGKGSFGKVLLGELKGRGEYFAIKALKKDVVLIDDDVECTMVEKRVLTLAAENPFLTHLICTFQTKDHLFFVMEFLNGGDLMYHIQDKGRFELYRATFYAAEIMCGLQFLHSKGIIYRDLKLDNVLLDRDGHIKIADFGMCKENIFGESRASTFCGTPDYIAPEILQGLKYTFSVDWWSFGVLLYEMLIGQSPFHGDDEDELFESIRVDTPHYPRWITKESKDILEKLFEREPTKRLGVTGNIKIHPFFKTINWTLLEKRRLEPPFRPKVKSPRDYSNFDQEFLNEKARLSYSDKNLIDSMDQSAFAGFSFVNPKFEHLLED

kinase still bound, per cent of control [1]: 20%
kinase still bound, per cent of control [2]: 6.3%
kinase still bound, per cent of control [3]: 14%
kinase still bound, per cent of control [4]: 33%
kinase still bound, per cent of control [5]: 2.6%
kinase still bound, per cent of control [6]: 100%
kinase still bound, per cent of control [7]: 4.6%
kinase still bound, per cent of control [8]: 2.4%
kinase still bound, per cent of control [9]: 42%
kinase still bound, per cent of control [10]: 18%
kinase still bound, per cent of control [11]: 86%
kinase still bound, per cent of control [12]: 5%
kinase still bound, per cent of control [13]: 8.8%
kinase still bound, per cent of control [14]: 5.8%
kinase still bound, per cent of control [15]: 19%
kinase still bound, per cent of control [16]: 100%
kinase still bound, per cent of control [17]: 100%
kinase still bound, per cent of control [18]: 0%
kinase still bound, per cent of control [19]: 30%
kinase still bound, per cent of control [20]: 93%
kinase still bound, per cent of control [21]: 100%
kinase still bound, per cent of control [22]: 0.05%
kinase still bound, per cent of control [23]: 1.2%
kinase still bound, per cent of control [24]: 4.8%
kinase still bound, per cent of control [25]: 0%
kinase still bound, per cent of control [26]: 37%
kinase still bound, per cent of control [27]: 79%
kinase still bound, per cent of control [28]: 12%
kinase still bound, per cent of control [29]: 49%
kinase still bound, per cent of control [30]: 41%
kinase still bound, per cent of control [31]: 70%
kinase still bound, per cent of control [32]: 85%
kinase still bound, per cent of control [33]: 100%
kinase still bound, per cent of control [34]: 53%
kinase still bound, per cent of control [35]: 47%
kinase still bound, per cent of control [36]: 0.65%
kinase still bound, per cent of control [37]: 100%
kinase still bound, per cent of control [38]: 75%
kinase still bound, per cent of control [39]: 61%
kinase still bound, per cent of control [40]: 100%
kinase still bound, per cent of control [41]: 28%
SMILES: O=C1Nc2cc(Br)ccc2/C1=C1/Nc2ccccc2/C1=N\O

kinase still bound, per cent of control [1]: 88%
kinase still bound, per cent of control [2]: 100%
kinase still bound, per cent of control [3]: 100%
kinase still bound, per cent of control [4]: 100%
kinase still bound, per cent of control [5]: 93%
kinase still bound, per cent of control [6]: 91%
kinase still bound, per cent of control [7]: 100%
kinase still bound, per cent of control [8]: 100%
kinase still bound, per cent of control [9]: 76%
kinase still bound, per cent of control [10]: 95%
kinase still bound, per cent of control [11]: 92%
kinase still bound, per cent of control [12]: 100%
kinase still bound, per cent of control [13]: 100%
kinase still bound, per cent of control [14]: 81%
kinase still bound, per cent of control [16]: 100%
kinase still bound, per cent of control [17]: 100%
kinase still bound, per cent of control [18]: 99%
kinase still bound, per cent of control [19]: 95%
kinase still bound, per cent of control [20]: 100%
kinase still bound, per cent of control [21]: 93%
kinase still bound, per cent of control [22]: 86%
kinase still bound, per cent of control [23]: 89%
kinase still bound, per cent of control [24]: 93%
kinase still bound, per cent of control [25]: 86%
kinase still bound, per cent of control [26]: 100%
kinase still bound, per cent of control [27]: 83%
kinase still bound, per cent of control [28]: 100%
kinase still bound, per cent of control [29]: 91%
kinase still bound, per cent of control [30]: 87%
kinase still bound, per cent of control [31]: 100%
kinase still bound, per cent of control [32]: 100%
kinase still bound, per cent of control [33]: 100%
kinase still bound, per cent of control [34]: 100%
kinase still bound, per cent of control [35]: 98%
kinase still bound, per cent of control [36]: 100%
kinase still bound, per cent of control [37]: 100%
kinase still bound, per cent of control [38]: 100%
kinase still bound, per cent of control [39]: 61%
kinase still bound, per cent of control [40]: 100%
kinase still bound, per cent of control [41]: 100%
SMILES: COc1ccc(CNC(=O)Nc2ncc([N+](=O)[O-])s2)cc1

kinase still bound, per cent of control [1]: 100%
kinase still bound, per cent of control [2]: 98%
kinase still bound, per cent of control [3]: 100%
kinase still bound, per cent of control [4]: 86%
kinase still bound, per cent of control [5]: 90%
kinase still bound, per cent of control [6]: 100%
kinase still bound, per cent of control [7]: 68%
kinase still bound, per cent of control [8]: 100%
kinase still bound, per cent of control [9]: 90%
kinase still bound, per cent of control [10]: 29%
kinase still bound, per cent of control [11]: 79%
kinase still bound, per cent of control [12]: 89%
kinase still bound, per cent of control [13]: 58%
kinase still bound, per cent of control [14]: 83%
kinase still bound, per cent of control [15]: 77%
kinase still bound, per cent of control [16]: 84%
kinase still bound, per cent of control [17]: 97%
kinase still bound, per cent of control [18]: 14%
kinase still bound, per cent of control [19]: 75%
kinase still bound, per cent of control [20]: 100%
kinase still bound, per cent of control [21]: 99%
kinase still bound, per cent of control [22]: 93%
kinase still bound, per cent of control [23]: 93%
kinase still bound, per cent of control [24]: 68%
kinase still bound, per cent of control [25]: 92%
kinase still bound, per cent of control [26]: 100%
kinase still bound, per cent of control [27]: 78%
kinase still bound, per cent of control [28]: 56%
kinase still bound, per cent of control [29]: 84%
kinase still bound, per cent of control [30]: 79%
kinase still bound, per cent of control [31]: 86%
kinase still bound, per cent of control [32]: 100%
kinase still bound, per cent of control [33]: 100%
kinase still bound, per cent of control [34]: 66%
kinase still bound, per cent of control [35]: 57%
kinase still bound, per cent of control [36]: 80%
kinase still bound, per cent of control [37]: 41%
kinase still bound, per cent of control [38]: 97%
kinase still bound, per cent of control [39]: 68%
kinase still bound, per cent of control [40]: 100%
kinase still bound, per cent of control [41]: 98%
SMILES: Cn1cc(C2=C(c3ccc(Cl)cc3Cl)C(=O)NC2=O)c2ccccc21

From the kinase profiling compilation of Christmann-Franck et al. (2016)
